We go through five compounds from article PMC11604427 (Frontiers in Pharmacology, 2024).

The target of the first test is T1, Human recombinant HDAC2 enzyme (Homo sapiens, UniProt Q92769).
T1 construct: purchased Abcam
T1 sequence (Q92769 whole entry): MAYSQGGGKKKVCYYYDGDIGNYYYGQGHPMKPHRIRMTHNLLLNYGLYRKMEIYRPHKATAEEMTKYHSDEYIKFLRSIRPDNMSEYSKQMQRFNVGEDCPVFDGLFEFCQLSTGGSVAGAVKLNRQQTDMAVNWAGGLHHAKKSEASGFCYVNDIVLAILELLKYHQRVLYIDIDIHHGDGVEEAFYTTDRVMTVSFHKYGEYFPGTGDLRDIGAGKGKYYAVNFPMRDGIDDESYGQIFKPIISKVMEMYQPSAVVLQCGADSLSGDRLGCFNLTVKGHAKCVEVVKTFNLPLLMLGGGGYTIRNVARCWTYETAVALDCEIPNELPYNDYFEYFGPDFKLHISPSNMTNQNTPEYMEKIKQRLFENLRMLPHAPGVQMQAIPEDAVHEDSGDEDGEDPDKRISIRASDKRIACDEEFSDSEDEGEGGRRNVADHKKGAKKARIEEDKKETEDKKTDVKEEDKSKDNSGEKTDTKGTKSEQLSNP
Description: HDAC2 fluorescence enzyme inhibition assay (Boc-Lys(acetyl)-AMC). It counts as biochemical. To be noted: fluorescence signal-based method. Here is the method: Firstly, a 96-well plate was loaded with a blend comprising 10 μL of HDAC2 enzyme solution and 50 μL of the test compounds at assorted concentrations, followed by incubation at a temperature of 37°C for a duration of 5 min. Subsequently, 10 μL of the fluorescent substrate Boc-Lys (acetyl)-AMC was added and continued for 30 min. Finally, 100 μL of developer containing trypsin and TSA was injected into each well and incubated for 20 min.
`C=CCc1nc2c(cc1CCCCCC(=O)NO)c(C(N)=O)c(N)n2-c1c(C)ccc(O)c1C` [PKHD-3]: the IC50 is 5.47 ± 0.66 nM.

For `CCc1nc2c(cc1CCCCCC(=O)NO)c(C(N)=O)c(N)n2-c1c(C)ccc(O)c1C` [PKHD-2], the IC50 came out at 4.14 ± 0.52 nM.

As to `Cc1ccc(O)c(C)c1-n1c(N)c(C(N)=O)c2cc(CCCCCC(=O)NO)c(CCCO)nc21` [PKHD-1], the IC50 amounted to 8.64 ± 1.35 nM.

In the case of `CCCCc1nc2c(cc1CCCCCC(=O)NO)c(C(N)=O)c(N)n2-c1c(C)ccc(O)c1C` [PKHD-4], the IC50 came out at 7.31 ± 1.12 nM.

The target of another test is T2, Human recombinant PKMYT1 enzyme (Homo sapiens, UniProt Q99640).
T2 construct: purchased Abcam
T2 sequence (Q99640 1-499): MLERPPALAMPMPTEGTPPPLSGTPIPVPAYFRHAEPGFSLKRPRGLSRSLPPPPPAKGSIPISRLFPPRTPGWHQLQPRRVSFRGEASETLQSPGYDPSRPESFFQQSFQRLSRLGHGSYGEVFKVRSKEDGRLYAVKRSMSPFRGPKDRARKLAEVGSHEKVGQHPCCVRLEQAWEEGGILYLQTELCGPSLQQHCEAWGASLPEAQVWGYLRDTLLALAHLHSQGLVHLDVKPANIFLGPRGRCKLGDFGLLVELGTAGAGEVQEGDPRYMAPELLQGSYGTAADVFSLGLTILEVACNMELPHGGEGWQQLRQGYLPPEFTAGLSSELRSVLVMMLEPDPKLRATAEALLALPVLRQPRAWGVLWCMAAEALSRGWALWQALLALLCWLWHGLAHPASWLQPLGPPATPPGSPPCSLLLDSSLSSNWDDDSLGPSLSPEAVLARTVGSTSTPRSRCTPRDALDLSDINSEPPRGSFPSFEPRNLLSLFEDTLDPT
Description: ADP-GLO enzyme inhibition assay. It counts as biochemical. To be noted: ADP-GLO method. Here is the method:
The ADP-GLO™ kinase assay kit, purchased from Promega Corporation (Madison, WI, United States), included the ADP-GLO reagent, the kinase assay reagent, and ultra-pure ATP and ADP. PKMYT1 enzyme was dissolved in 5 μL of freshly prepared enzyme assay buffer containing 70 mM Hepes, 3 mM MgCl2, 3 mM MnCl2, 50 μg/mL PEG20000, 3 μM sodium orthovanadate, 1.2 mM dithiothreitol, and then injected into 384-well plates. […] The enzymatic reaction was initiated by adding 5 μL of ATP, followed by a 60-min incubation at 30°C. Subsequently, 15 μL of ADP-GLO reagent was added, and the incubation was continued for an additional 40 min at room temperature. Then, 30 μL of kinase detection reagent was introduced, and the samples were incubated for a final 30 min. Luminescence measurements were taken using an Envision plate reader (PerkinElmer). The IC50 value of each tested compound was calculated by GraphPad Prism software.
For `C=CCc1nc2c(cc1CCCCCC(=O)NO)c(C(N)=O)c(N)n2-c1c(C)ccc(O)c1C` [PKHD-3], the IC50 amounted to 9.26 ± 1.07 nM.

Take `O=C(CCCCCCC(=O)Nc1ccccc1)NO` [SAHA, Vorinostat, reference compound]: the “PKMYT1 (IC50, nM)” value was “no inhibition”.

For `CCc1nc2c(cc1CCCCCC(=O)NO)c(C(N)=O)c(N)n2-c1c(C)ccc(O)c1C` [PKHD-2], the IC50 amounted to 7.78 ± 0.91 nM.

With `Cc1ccc(O)c(C)c1-n1c(N)c(C(N)=O)c2cc(CCCCCC(=O)NO)c(CCCO)nc21` [PKHD-1], the IC50 came to 11.1 ± 1.86 nM.

In the case of `CCCCc1nc2c(cc1CCCCCC(=O)NO)c(C(N)=O)c(N)n2-c1c(C)ccc(O)c1C` [PKHD-4], the IC50 is 13.6 ± 1.94 nM.
